From publication PMC2562352 (Journal of medicinal chemistry, 2008)

Assays:
yellow fever virus = assay type: cell-based, yellow fever virus (YFV 17D)
BHK cells = assay: Cell viability assay; details: CC50 compared with M02

Row | SMILES | antiviral activity vs. yellow fever virus (in words) (yellow fever virus) | antiviral activity relative to parent compound M02 (yellow fever virus) [times] | cytotoxicity relative to parent compound M02 (times less) (BHK cells) [times]
1 | Nc1ccc(SCc2csc(-c3cccnc3)n2)cc1 [Compound 28] | lose antiviral activity | – | –
2 | CC(=O)c1ccc(NC(=O)Nc2nc(C)c(C(=O)NCc3ccc(Cl)cc3Cl)s2)cc1 [Compound 7, 2-(3-(4-Acetylphenyl)-ureido)-N-(2,4-dichlorobenzyl)-4-methylthiazole-5-carboxamide] | inactive | – | –
3 | COC(=O)c1sc(-c2ccc(Cl)cc2)nc1C [Compound 32, 2-(4-Chlorophenyl)-4-methyl-thiazole-5-carboxylic Acid Methyl Ester] | inactive | – | –
4 | Clc1ccc(-c2nc(CSc3cccc(Cl)c3)cs2)cc1 [Compound 30] | lose antiviral activity | – | –
5 | COC(=O)c1sc(N(Cc2ccc(C(C)=O)cc2)Cc2ccc(C(C)=O)cc2)nc1C [Compound 18, Methyl 2-(Bis(4-acetylbenzyl)amino)-4-methylthiazole-5-carboxylate] | active | – | –
6 | CC(=O)c1ccc(NC(=O)Nc2nc(C)c(C(=O)NCc3ccc(Cl)c(Cl)c3)s2)cc1 [Compound 8, 2-(3-(4-Acetylphenyl)-ureido)-N-(3,4-dichlorobenzyl)-4-methylthiazole-5-carboxamide] | active | – | –
7 | Nc1ccccc1SCc1csc(-c2cccnc2)n1 [Compound 29] | lose antiviral activity | – | –
8 | Cc1nc(-n2nc(-c3ccccc3)cc2-c2ccccc2)sc1C(=O)NCc1ccc(Cl)c(Cl)c1 [Compound 11, N-(3,4-Dichlorobenzyl)-2-(3,5-diphenyl-1H-pyrazol-1-yl)-4-methylthiazole-5-carboxamide] | – | 10 | 2.7
9 | C/C(=N\NC(=N)N)c1ccc(NC(=O)Nc2nc(C)c(C(=O)NCc3ccc(Cl)cc3Cl)s2)cc1 [Compound 2, (E)-2-(3-(4-(1-(2-Carbamimidoylhydrazono)-ethyl)-phenyl)-ureido)-N-(2,4-dichlorobenzyl)-4-methylthiazole-5-carboxamide] | active | – | –
10 | C/C(=N\NC(N)=O)c1ccc(NC(=O)Nc2nc(C)c(C(=O)NCc3ccc(Cl)cc3Cl)s2)cc1 [Compound 1, (E)-2-(3-(4-(1-(2-Carbamoylhydrazono)-ethyl)-phenyl)-ureido)-N-(2,4-dichlorobenzyl)-4-methylthiazole-5-carboxamide] | inactive | – | –
11 | CC(=O)c1ccc(NC(=O)Nc2nc(C)c(C(=O)O)s2)cc1 [Compound 4, 2-[3-(4-Acetylphenyl)-ureido]-4-methylthiazole-5-carboxylic Acid] | lost its activity | – | –
